Assay [1] deals with Sprague Dawley rats. Put plainly: Morris water maze test (escape time to hidden platform). The class given is in vivo. The procedure:
In the Morris water maze test, each of the test animals was given four swimming trials per session per day for 4-5 days. When the escape latency of the test animal, that is, the time for the test animal to reach a hidden platform 2 cm below the surface of water, was shortened to about 10±2 seconds during the repeat of the learning sessions, a probe test was performed after 24 hours one time for 60 seconds without the platform.
In the present invention, the effect of formulated drugs on the improvement of learning and memory for spatial recognition of a normal test animal group (Sprague Dawley rats) was tested by administering the drugs to the test animals orally or through drinking water for 2, 3 or 4 weeks and performing a Morris water maze test at 2, 3 or 4 weeks after the drug administration.
(§1) In the Morris water maze test, each of the test animals was given four swimming trials per session per day for 4-5 days. When the escape latency of the test animal, that is, the time for the test animal to reach a hidden platform 2 cm below the surface of water, became shorter than 10±2 seconds during the repeat of the learning sessions, a probe test was performed after 24 hours one time for 60 seconds without the platform. The probe test was performed by removing the platform from the swimming pool and observing the swimming behavior of the test animals. In the probe test, as measures of spatial working memory, the retention time and movement distance of the test animals in the same area of a quadrant region including the position in which the platform was present during the first learning period were analyzed and compared with those of the control group.
Starting from 4 weeks of the administration, a Morris water maze test was performed at a given time point daily four times per day for 4 days to analyze the effect of each composition on the improvement of learning and memory for spatial recognition function of the test animals. As the test results are shown in FIG. 1(a) showing the escape time of each group.

Assay [2] concerns Sprague Dawley rats. Description: probe test after Morris water maze learning (platform removed). In kind it is in vivo. The procedure:
as §1
At 5 days, that is, after 24 hours when the escape time for the learned test animals to reach the platform became an average of 10±2 seconds, the platform was removed and a probe test was performed one time. The test results are shown in FIG. 1(b) to analyze an improvement in learning and memory for spatial recognition functions.

The subject of another assay is ischemia-induced brain. The settings on record: administered after hypoxia; Ann. Thorac. Surg. 1994; cited from earlier work.
The conditions of assay [3]: administered for 1 week; Jpn J Psychiatry Neurol 1991; cited from earlier work.
The test system of another assay is cerebral cortex. The conditions noted are these: normal persons; Saarma J. et al. 1975; cited from earlier work.
The mark [4] stands for this setting: fumaric acid 100 mg/kg with Tween80 100 mg/kg (FA100Tw100 group), drinking water 4 weeks, vs Tw50 control.

This is an account of results in patent US20090047369A1, “Composition Comprising 4-Carbon Dicarboxlic Acids for Improvement of Memory Function” (Eubioslab Co., Ltd, priority 2006, published 2009).

Consider `O=C(O)/C=C/C(=O)O` [fumaric acid], for which the “improvement of learning (escape time)” value in the assay with Sprague Dawley rats [1] (setting [4]) is “significant (p<0.05) effect on the improvement of both learning and working memory”. The “effect on the improvement of learning and memory” value with Sprague Dawley rats [1] (fumaric acid given with Tween80 (FA50Tw50, FA100Tw100 groups) through drinking water 4 weeks, vs Tw50 control) was “dose-dependent effect on the improvement of learning and memory”. In the assay on Sprague Dawley rats [2] (setting [4]), the “improvement of working memory” value is “significant (p<0.05) effect on the improvement of both learning and working memory”. Moreover, in the assay on ischemia-induced brain, the nerve protective effect result is given as “nerve protective effects”. With `CN(C)CCCN1c2ccccc2CCc2ccccc21` [imipramine], the antidepressant effect entry in assay [3] was “significant antidepressant effect”. With `O=C(O)CCC(=O)O` [succinic acid], the “learning ability in the Morris water maze test” value in the assay on Sprague Dawley rats [1] (succinic acid 100 mg/kg with Span80 200 mg/kg (SA100Sp200 group), drinking water 3 weeks, session 4, P<0.001 vs DW control, Mann Whitney U test) is reported as “significant increase in learning ability”. In addition, in the assay with Sprague Dawley rats [2] (succinic acid 100 mg/kg with Span80 200 mg/kg (SA100Sp200 group), drinking water 3 weeks, vs DW control), the “working memory in the probe test” value was “insignificant (P=0.089) improvement in working memory”. In the case of `O=C(O)CCC(=O)O` [SS, sodium succinate], the “excitability of the cerebral cortex” value with cerebral cortex is reported as “stabilizes the excitability of the cerebral cortex”. For `O=CCCC(=O)O` [SSA, succinic semialdehyde, reference compound], the “excitability of the cerebral cortex” value with cerebral cortex is “enhances the excitability of the cerebral cortex”.
